# Results published in ChEMBL document CHEMBL5550177, “Design and synthesis of matrine derivatives for anti myocardial ischemia-reperfusion injury by promoting angiogenesis” (Bioorg Med Chem, 2024).
# The source made the active and inactive calls. The calls are words filed in the database; no cut-off is given here.
# Legend:
# [1] = system: H9c2; assay: Cytotoxicity against rat H9c2 cells assessed as cell viability upto 20 uM incubated for 24 hrs by CCK-8 assay; assay type: toxicity, cell-based; conditions: h9c2, 24 h
# [2] = system: Rattus norvegicus; assay: Cardioprotective activity in myocardial ischemia/reperfusion induced rat injury model assessed as reduction in myocardial fiber disruption at 5 to 20 mg/kg, iv pretreated with compound followed by MI/R induction measured after 30 mins by H and E staining based light microscopic analysis; assay type: functional, organism-based; conditions: dose 5-20 mg/kg
# [3] = system: Rattus norvegicus; assay: Cardioprotective activity in myocardial ischemia/reperfusion induced rat injury model assessed as improvement in cardiac injury at 5 to 20 mg/kg, iv pretreated with compound followed by MI/R induction measured after 30 mins by H and E staining based light microscopic analysis; assay type: functional, organism-based; conditions: dose 5-20 mg/kg
# [4] = system: H9c2; assay: Protection against H/R induced damage in rat H9c2 cells assessed as increase in cell viability at 1 to 20 umol/L preincubated for 2 hrs followed by hypoxic reoxygenation induction by CCK-8 assay; assay type: functional, cell-based; conditions: dose 1-20 µmol/L
# [5] = Drug accumulation in rat heart at 5 to 20 mg/kg, iv measured after 2 hrs by HPLC analysis; assay type: ADME, organism-based; conditions: in vivo, dose 5-20 mg/kg
# [6] = system: Rattus norvegicus; assay: Cardioprotective activity in myocardial ischemia/reperfusion induced rat injury model assessed as improvement in damaged left ventricular systolic pressure at 5 to 20 mg/kg, iv measured after 30 mins; assay type: functional, organism-based; conditions: dose 5-20 mg/kg
# [7] = system: Rattus norvegicus; assay: Cardioprotective activity in iv dosed myocardial ischemia/reperfusion induced rat injury model assessed as reduction in serum LDH level pretreated with compound followed by MI/R induction measured after 30 mins; assay type: functional, organism-based; conditions: dose 5-20 mg/kg
# [8] = Toxicity in rat assessed as change in organ morphology at 20 to 100 mg/kg, iv measured after 14 days; assay type: organism-based; conditions: in vivo, 336 h, dose 20-100 mg/kg, time 14 day
# [9] = system: H9c2; assay: Cardioprotective activity against MI/R induced rat H9c2 cells assessed as upregulation of ADCY5 protein expression at 5 to 20 uM pretreated with compound followed by MI/R induction by Western blotting assay; assay type: functional, cell-based; conditions: dose 5-20 µM
# [10] = system: Rattus norvegicus; assay: Antioxidant activity in myocardial ischemia/reperfusion induced rat injury model assessed as decrease in MDA level at 5 to 20 mg/kg, iv pretreated with compound followed by MI/R induction measured after 30 mins; assay type: functional, organism-based; conditions: dose 5-20 mg/kg
# [11] = system: H9c2; assay: Protection against H/R induced necrosis in rat H9c2 cells assessed as reduction in myocardial cell death at 5 to 20 uM preincubated with compound followed by hypoxic reoxygenation induction by Hoechst 33258/PI double staining based fluorescence microscopic analysis; assay type: functional; conditions: dose 5-20 µM
# [12] = system: H9c2; assay: Cardioprotective activity against H/R induced damage in rat H9c2 cells assessed as reduction in PP2B gene expression by RT-qPCR assay; assay type: functional, cell-based; conditions: dose 5-20 µM
# [13] = Toxicity in rat assessed as change in organ color at 20 to 100 mg/kg, iv measured after 14 days; assay type: organism-based; conditions: in vivo, 336 h, dose 20-100 mg/kg, time 14 day
# [14] = system: H9c2; assay: Cardioprotective activity against MI/R induced rat H9c2 cells assessed as reduction in PP2B protein expression at 5 to 20 uM pretreated with compound followed by MI/R induction by Western blotting assay; assay type: functional, cell-based; conditions: dose 5-20 µM
# [15] = system: H9c2; assay: Protection against H/R induced damage in rat H9c2 cells assessed as reduction in LDH level at 20 uM preincubated with compound followed by hypoxic reoxygenation induction; assay type: functional, cell-based
# [16] = system: H9c2; assay: Protection against H/R induced damage in rat H9c2 cells assessed as increase in cell viability at 1 to 20 umol/L preincubated for 2 hrs followed by hypoxic reoxygenation induction by CCK-8 assay (reference value: 45.1 +/- 2.1%); assay type: functional; conditions: dose 1-20 µmol/L; at 1 to 20 µM
# [17] = system: H9c2; assay: Antioxidant activity against H/R induced damage in rat H9c2 cells assessed as reduction in MDA level at 5 to 20 uM preincubated with compound followed by hypoxic reoxygenation induction; assay type: functional, cell-based; conditions: dose 5-20 µM
# [18] = system: Rattus norvegicus; assay: Cardioprotective activity in myocardial ischemia/reperfusion induced rat injury model assessed as improvement in damaged left ventricular diastolic pressure at 5 to 20 mg/kg, iv measured after 30 mins; assay type: functional, organism-based; conditions: dose 5-20 mg/kg
# [19] = system: Rattus norvegicus; assay: Cardioprotective activity in iv dosed myocardial ischemia/reperfusion induced rat injury model assessed as reduction in area of infraction pretreated with compound followed by MI/R induction measured after 30 mins by TTC staining based assay; assay type: functional, organism-based; conditions: dose 5-20 mg/kg
# [20] = system: Rattus norvegicus; assay: Antioxidant activity in myocardial ischemia/reperfusion induced rat injury model assessed as increase in SOD level at 5 to 20 mg/kg, iv pretreated with compound followed by MI/R induction measured after 30 mins; assay type: functional, organism-based; conditions: dose 5-20 mg/kg
# [21] = system: Rattus norvegicus; assay: Cardioprotective activity in myocardial ischemia/reperfusion induced rat injury model assessed as improvement in damaged ventricular systolic function at 5 to 20 mg/kg, iv measured after 30 mins; assay type: functional, organism-based; conditions: dose 5-20 mg/kg
# [22] = system: H9c2; assay: Cardioprotective activity against MI/R induced rat H9c2 cells assessed as upregulation of VEGFA protein expression at 5 to 20 uM pretreated with compound followed by MI/R induction by Western blotting assay; assay type: functional, cell-based; conditions: dose 5-20 µM
# [23] = system: Chorioallantoic membrane; assay: Angiogenesis activity in chicken embryo chorioallantoic membrane assessed as increase in total number of blood vessels incubated for 132 hrs by CAM assay; assay type: functional, tissue-based; conditions: Gallus gallus
# [24] = system: H9c2; assay: Antioxidant activity against H/R induced damage in rat H9c2 cells assessed as increase in SOD level preincubated with compound followed by hypoxic reoxygenation induction; assay type: functional, cell-based; conditions: dose 5-20 µM
# [25] = system: H9c2; assay: Cardioprotective activity against H/R induced damage in rat H9c2 cells assessed as reduction in BNP gene expression by RT-qPCR assay; assay type: functional, cell-based; conditions: dose 5-20 µM
# [26] = system: Rattus norvegicus; assay: Cardioprotective activity in iv dosed myocardial ischemia/reperfusion induced rat injury model assessed as reduction in serum CK-MB level pretreated with compound followed by MI/R induction measured after 30 mins; assay type: functional, organism-based; conditions: dose 5-20 mg/kg
# [27] = system: Rattus norvegicus; assay: Cardioprotective activity in myocardial ischemia/reperfusion induced rat injury model assessed as prevention of average femoral artery blood pressure decrease at 5 to 20 mg/kg, iv measured after 30 mins; assay type: functional, organism-based; conditions: dose 5-20 mg/kg
# [28] = system: H9c2; assay: Cardioprotective activity against H/R induced damage in rat H9c2 cells assessed as upregulation of CREB3L4 gene expression at 5 to 20 uM by RT-qPCR assay; assay type: functional, cell-based; conditions: dose 5-20 µM
# [29] = Toxicity in rat assessed as change in organ index at 20 to 100 mg/kg, iv measured after 14 days; assay type: organism-based; conditions: in vivo, 336 h, dose 20-100 mg/kg, time 14 day
# [30] = system: H9c2; assay: Cardioprotective activity against H/R induced damage in rat H9c2 cells assessed as upregulation of ADCY5 gene expression at 5 to 20 uM by RT-qPCR assay; assay type: functional, cell-based; conditions: dose 5-20 µM
# [31] = system: H9c2; assay: Cardioprotective activity against MI/R induced rat H9c2 cells assessed as reduction in BNP protein expression at 5 to 20 uM pretreated with compound followed by MI/R induction by Western blotting assay; assay type: functional, cell-based; conditions: dose 5-20 µM
# [32] = system: H9c2; assay: Cardioprotective activity against MI/R induced rat H9c2 cells assessed as upregulation of CREB3L4 protein expression at 5 to 20 uM pretreated with compound followed by MI/R induction by Western blotting assay; assay type: functional, cell-based; conditions: dose 5-20 µM
# [33] = system: H9c2; assay: Protection against H/R induced damage in rat H9c2 cells assessed as reduction in CK-MB level at 20 uM preincubated with compound followed by hypoxic reoxygenation induction; assay type: functional, cell-based
# [34] = system: H9c2; assay: Protection against H/R induced necrosis in rat H9c2 cells assessed as reduction in myocardial cell death preincubated with compound followed by hypoxic reoxygenation induction by Hoechst 33258/PI double staining based fluorescence microscopic analysis; assay type: functional; conditions: dose 5-20 µM
# [35] = system: H9c2; assay: Cardioprotective activity against H/R induced damage in rat H9c2 cells assessed as upregulation of VEGFA gene expression at 5 to 20 uM by RT-qPCR assay; assay type: functional, cell-based; conditions: dose 5-20 µM
# [36] = system: Rattus norvegicus; assay: Cardioprotective activity in myocardial ischemia/reperfusion induced rat injury model assessed as prevention of heart rate decrease at 5 to 20 mg/kg, iv measured after 30 mins; assay type: functional, organism-based; conditions: dose 5-20 mg/kg
structure (smiles),measurement,setting,value
O=C(CCC[C@@H]1[C@H]2CCCN3CCC[C@@H](CN1Cc1ccccc1)[C@@H]23)NC1CCCC1,Activity,[1],Non-Toxic
O=C(CCC[C@@H]1[C@H]2CCCN3CCC[C@@H](CN1Cc1ccccc1)[C@@H]23)NC1CCCCC1,Activity,[1],Non-Toxic
O=C(CCC[C@@H]1[C@H]2CCCN3CCC[C@@H](CN1Cc1ccccc1)[C@@H]23)NCCc1ccc(O)cc1,Activity,[1],Non-Toxic
CC(C)NCC(O)COc1ccc(CC(N)=O)cc1 (configuration not stated),Activity,[2],Active
same,Activity,[3],Active
O=C(CCC[C@@H]1[C@H]2CCCN3CCC[C@@H](CN1Cc1ccccc1)[C@@H]23)NCCOCCO,Activity,[4],Active
O=C(CCC[C@@H]1[C@H]2CCCN3CCC[C@@H](CN1Cc1ccccc1)[C@@H]23)NCCc1c[nH]c2ccccc12,Activity,[1],Non-Toxic
O=C(CCC[C@@H]1[C@H]2CCCN3CCC[C@@H](CN1Cc1ccccc1)[C@@H]23)NCCOCCOC(=O)c1sccc1Cl,Drug uptake,[5],Active
same,Activity,[6],Active
same,Activity,[7],Dose-Dependent Effect
same,Activity,[8],Non-Toxic
same,Activity,[9],Active
same,Activity,[10],Active
same,Activity,[11],Active
same,Activity,[12],Dose-Dependent Effect
same,Activity,[13],Non-Toxic
same,Activity,[2],Active
same,Activity,[14],Active
same,Activity,[15],Active
same,Activity,[16],93.2%
same,Activity,[17],Active
same,Activity,[18],Active
same,Activity,[19],Dose-Dependent Effect
same,Activity,[20],Active
same,Activity,[21],Active
same,Activity,[22],Active
same,Activity,[23],Active
same,Activity,[24],Dose-Dependent Effect
same,Activity,[3],Active
same,Activity,[25],Dose-Dependent Effect
same,Activity,[26],Dose-Dependent Effect
same,Activity,[27],Active
same,Activity,[28],Active
same,Activity,[29],Non-Toxic
same,Activity,[30],Active
same,Activity,[31],Active
same,Activity,[32],Active
same,Activity,[33],Active
same,Activity,[34],Dose-Dependent Effect
same,Activity,[35],Active
same,Activity,[36],Active
O=C1CCC[C@@H]2[C@H]3CCCN4CCC[C@@H](CN12)[C@@H]34 [MATRINE],Activity,[1],Non-Toxic
O=C(CCC[C@@H]1[C@H]2CCCN3CCC[C@@H](CN1Cc1ccccc1)[C@@H]23)Nc1cccnn1,Activity,[1],Non-Toxic
O=C(CCC[C@@H]1[C@H]2CCCN3CCC[C@@H](CN1Cc1ccccc1)[C@@H]23)NCCC1=CC=CCC1=S,Activity,[1],Non-Toxic
O=C(CCC[C@@H]1[C@H]2CCCN3CCC[C@@H](CN1Cc1ccccc1)[C@@H]23)NC1CCC1,Activity,[1],Non-Toxic
CCOCCNC(=O)CCC[C@@H]1[C@H]2CCCN3CCC[C@@H](CN1Cc1ccccc1)[C@@H]23,Activity,[1],Non-Toxic
O=C(CCC[C@@H]1[C@H]2CCCN3CCC[C@@H](CN1Cc1ccccc1)[C@@H]23)NC1CC1,Activity,[1],Non-Toxic
